From patent US20080261936A1, “METHODS OF REDUCING THE BODY WEIGHT OF A SUBJECT BY ADMINISTERING A FATTY ACID ESTER OF AN ESTROGEN OR ESTROGEN DERIVATIVE IN AN OIL AND COMPOSITIONS CONTAINING THE SAME” (Manhattan Pharmaceuticals, Inc., priority 2006, published 2008)
Where “and” joins values, the source holds several entries; their conditions need not be identical. Equal entries are not always repeated.

Assays:
[1] = Compatibility/stability of oleoyl-estrone in oil systems (appearance/color, potency, related substances); type: physicochemical
Description: The compatibility of oleoyl-estrone in various oil systems was also assessed. The respective stability of oleoyl-estrone in various oils was assessed following storage at (A) 25° C./60% and relative humidity (RH), (B) 40° C./75% RH, (C) 50° C. and (D) 60° C. in canola oil, safflower oil, Captex and a 2:1 Captex: Labrafil mixture. The stability test methods include appearance/color, potency, and related substances (e.g. impurities or degradant in the oleoyl-estrone and oil mixture).

[2] = Solubility of oleoyl-estrone in binary oil blends, 200 mg/g at room temperature; type: physicochemical
Description: These four types of oils were then evaluated in binary blend systems with an oleoyl-estrone concentration of 200 mg/g at room temperature for 24 hours and 96 hours.

[3] = in CANOLA, Two Weeks 25° C./60% RH
[4] = in CANOLA, Two Weeks 40° C./75% RH
[5] = in CAPTEX, One Week 25° C./60% RH
[6] = in CAPTEX, One Week 40° C./75% RH
[7] = in CAPTEX, Three Weeks 25° C./60% RH
[8] = in CAPTEX, Three Weeks 40° C./75% RH
[9] = in CAPTEX, Two Weeks 25° C./60% RH
[10] = in CAPTEX, Two Weeks 40° C./75% RH
[11] = in SAFFLOWER, One Week 25° C./60% RH
[12] = in SAFFLOWER, One Week 40° C./75% RH
[13] = in SAFFLOWER, Three Weeks 25° C./60% RH
[14] = in SAFFLOWER, Three Weeks 40° C./75% RH
[15] = in SAFFLOWER, Three Weeks 50° C.
[16] = in SAFFLOWER, Three Weeks 60° C.
[17] = in SAFFLOWER, Two Weeks 25° C./60% RH
[18] = in SAFFLOWER, Two Weeks 40° C./75% RH
[19] = in the mixture of Captex and Labrafil stored at 50° C. and 60° C., three weeks
[20] = 200 mg/g in Canola:Labrafil (2:1) at RT (about 22° C.)
[21] = 200 mg/g in Captex 300 EP:Labrafil (2:1) at RT (about 22° C.)
[22] = 200 mg/g in Safflower:Labrafil (2:1) at RT (about 22° C.)

Purity Assay ([1]; in CANOLA, Time Zero): 97.5% and 98.0% and 97.8% and 98.9%
Mean Purity Assay [1, 3]: 96.4%
Purity Assay [1, 3]: 92.5% and 100.3%
Mean Purity Assay [1, 4]: 99.0%
Purity Assay [1, 4]: 98.2% and 99.8%
Mean Purity Assay ([1]; in CANOLA, Two Weeks 50° C.): 98.2%
Purity Assay ([1]; in CANOLA, Two Weeks 50° C.): 100.2% and 96.2%
Mean Purity Assay ([1]; in CANOLA, Two Weeks 60° C.): 97.3%
Purity Assay ([1]; in CANOLA, Two Weeks 60° C.): 96.7% and 97.9%
Mean Purity Assay [1, 5]: 105.2%
Purity Assay [1, 5]: 102.0% and 108.3%
Mean Purity Assay [1, 6]: 103.6%
Purity Assay [1, 6]: 105.2% and 101.9%
Mean Purity Assay ([1]; in CAPTEX, One Week 50° C.): 101.2%
Purity Assay ([1]; in CAPTEX, One Week 50° C.): 99.5% and 102.9%
Mean Purity Assay ([1]; in CAPTEX, One Week 60° C.): 101.9%
Purity Assay ([1]; in CAPTEX, One Week 60° C.): 101.5% and 102.3%
Mean Purity Assay [1, 7]: 99.5%
Purity Assay [1, 7]: 100.4% and 98.5%
Mean Purity Assay [1, 8]: 99.1%
Purity Assay [1, 8]: 99.4% and 98.8%
Mean Purity Assay ([1]; in CAPTEX, Three Weeks 50° C.): 106.5%
Purity Assay ([1]; in CAPTEX, Three Weeks 50° C.): 107.1% and 105.9%
Mean Purity Assay ([1]; in CAPTEX, Three Weeks 60° C.): 103.0%
Purity Assay ([1]; in CAPTEX, Three Weeks 60° C.): 100.7% and 105.3%
Mean Purity Assay ([1]; in CAPTEX, Time Zero): 105.4%
Purity Assay ([1]; in CAPTEX, Time Zero): 105.6% and 105.3% and 104.1% and 106.4%
Mean Purity Assay [1, 9]: 102.8%
Purity Assay [1, 9]: 104.8% and 100.8%
Mean Purity Assay [1, 10]: 96.4%
Purity Assay [1, 10]: 98.5% and 94.3%
Mean Purity Assay ([1]; in CAPTEX, Two Weeks 50° C.): 97.9%
Purity Assay ([1]; in CAPTEX, Two Weeks 50° C.): 96.5% and 99.3%
Mean Purity Assay ([1]; in CAPTEX, Two Weeks 60° C.): 102.4%
Purity Assay ([1]; in CAPTEX, Two Weeks 60° C.): 105.6% and 99.1%
Mean Purity Assay [1, 11]: 99.1%
Purity Assay [1, 11]: 99.4% and 98.7%
Mean Purity Assay [1, 12]: 100.9%
Purity Assay [1, 12]: 102.6% and 99.2%
Mean Purity Assay ([1]; in SAFFLOWER, One Week 50° C.): 100.7%
Purity Assay ([1]; in SAFFLOWER, One Week 50° C.): 100.9% and 100.4%
Mean Purity Assay ([1]; in SAFFLOWER, One Week 60° C.): 100.8%
Purity Assay ([1]; in SAFFLOWER, One Week 60° C.): 99.5% and 102.0%
Mean Purity Assay [1, 13]: 105.7%
Purity Assay [1, 13]: 108.1% and 103.3%
Mean Purity Assay [1, 14]: 104.6%
Purity Assay [1, 14]: 102.7% and 106.5%
Mean Purity Assay [1, 15]: 98.7%
Purity Assay [1, 15]: 101.0% and 96.4%
Mean Purity Assay [1, 16]: 105.1%
Purity Assay [1, 16]: 103.7% and 106.5%
Mean Purity Assay ([1]; in SAFFLOWER, Time Zero): 103.8%
Purity Assay ([1]; in SAFFLOWER, Time Zero): 102.1% and 104.8% and 104.7% and 103.5%
Mean Purity Assay [1, 17]: 101.6%
Purity Assay [1, 17]: 105.1% and 98.1%
Mean Purity Assay [1, 18]: 100.2%
Purity Assay [1, 18]: 98.1% and 102.3%
Mean Purity Assay ([1]; in SAFFLOWER, Two Weeks 50° C.): 96.7%
Purity Assay ([1]; in SAFFLOWER, Two Weeks 50° C.): 98.3% and 95.1%
Mean Purity Assay ([1]; in SAFFLOWER, Two Weeks 60° C.): 98.1%
Purity Assay ([1]; in SAFFLOWER, Two Weeks 60° C.): 99.2% and 96.9%
Degradation of oleoyl-estrone ([1]; in canola oil, safflower oil or Captex, three weeks at 25° C./60% RH, 40° C./75% RH, 50° C. and 60° C.): no measurable degradation
Degradation of oleoyl-estrone [1, 19]: measurable degradation
Levels of estrone [1, 19]: increased significantly
Notes (phase separation) [2, 20]: No phase separation
Solubility After 24 hr [2, 20]: Dissolved
Solubility After 96 hr [2, 20]: Dissolved
Notes (phase separation) [2, 21]: No phase separation
Solubility After 24 hr [2, 21]: Dissolved
Solubility After 96 hr [2, 21]: Dissolved
Notes (phase separation) [2, 22]: No phase separation
Solubility After 24 hr [2, 22]: NOT Dissolved
Solubility After 96 hr [2, 22]: Dissolved
Solubility After 24 hr ([2]; 200 mg/g in Soybean:Labrafil (2:1) at RT (about 22° C.)): NOT Dissolved
SMILES: CCCCCCCC/C=C\CCCCCCCC(=O)Oc1ccc2c(c1)CC[C@@H]1[C@@H]2CC[C@]2(C)C(=O)CC[C@@H]12 [oleoyl-estrone, [3(Z)]-3-[(1-oxo-9-octadecenyl)oxy]-estra-1,3,5(10)-trien-17-one]
